Measurements: ChEMBL document CHEMBL1121909, “Alkylating angiotensin II analogues: synthesis, analysis, and biological activity of angiotensin II analogues containing the nitrogen mustard melphalan in position 8” (J Med Chem, 1981)
Where a SMILES comes first, the peptide text is derived from it. [ ]: non-standard residue; d: D form. Phe(4-N(CH2CH2Cl)2) = N[C@@H](Cc1ccc(N(CCCl)CCCl)cc1)C(=O)O

Experiments:
Rattus norvegicus [1] = assay: The compound was tested in vivo for pressor activity in Rat uterine preparation; format: functional
Rattus norvegicus [2] = organism: Rattus norvegicus; assay: Antagonism against angiotensin II induced contraction in Rat uterine preparation; format: functional; details: read-out: pA2 (converted)

| Compound | Activity (Rattus norvegicus [1]) | Kb (Rattus norvegicus [2]) |
| --- | --- | --- |
| CC[C@H](C)[C@@H](NC(=O)[C@H](Cc1ccc(O)cc1)NC(=O)[C@@H](NC(=O)[C@H](CCCNC(N)N)NC(=O)[C@@H](N)CC(=O)O)C(C)C)[C@@H](C)N[C@@H](Cc1c[nH]cn1)C(=O)N1CCC[C@@H]1C(=O)N[C@@H](Cc1ccc(N(CCCl)CCCl)cc1)C(=O)O | 0.3% |  |
| CC[C@H](C)[C@H](NC(=O)[C@H](Cc1ccc(O)cc1)NC(=O)[C@@H](NC(=O)[C@H](CCCN=C(N)N)NC(=O)[C@H](CC(N)=O)NC(C)=O)C(C)C)C(=O)N[C@@H](Cc1c[nH]cn1)C(=O)N1CCC[C@H]1C(=O)N[C@@H](Cc1ccc(N(CCCl)CCCl)cc1)C(=O)O (Ac-NRVYIHP[Phe(4-N(CH2CH2Cl)2)]-OH) |  | 3.16 nM |
